We go through two compounds from patent US9199948B2, “1,3-benzoxazol-2(3H)-ones and their use as medicaments and cosmetics” (DR. AUGUST WOLFF GMBH & CO. KG ARZNEIMITTEL, priority 2012, dated 2015).

A word on the EC50: it is the midpoint of the concentration-response curve. Higher therefore signals weaker potency.

For the assay, the system named is Arachidonoylethanolamide Transport (AEAT) in U937 cells. The assay is described as follows: Cellular uptake of [3H]-AEA (inhibition of arachidonoylethanolamide transport, AEAT). It counts as cell-based. As to conditions: Homo sapiens, U-937, 100 nM AEA, 15 min pre-incubation, 15 min uptake at 37° C. Here is the method:
C. Cellular Uptake of [^3H]-AEA
Human lymphoma U937 cells were grown in RPMI 1640 medium (Invitrogen, Basel, Switzerland) supplemented with 10% fetal bovine serum, […] fungizone (amphotericin B), 100 units/ml penicillin, 100 µg/ml streptomycin, and 2 mM L-glutamine (all from Invitrogen) and selected for the cellular AEA uptake assay. 2.5×10^6 cells were collected and suspended in 250 μl of RPMI 1640 medium (Invitrogen, Basel, Switzerland) at 37° C. using glass silanized vials. Cells were pre-incubated 15 min at 37° C. in presence of test compounds in a concentration range of 10^−11−10^−5 M or in presence of the same amount (5 μl) of vehicle control (DMSO). Then a mixture of 0.5 nM [^3H]-AEA (60 Ci/mmol) (American Radiolabeled Chemicals, Inc., San Louis, Mo., US) and 99.5 nM of nonradioactive AEA (Tocris Cookson Ltd., Bristol, UK) resulting in a final concentration of 100 nM AEA was added and samples were incubated at 37° C. for another 15 minutes. […] Radioactivity was measured using a Perkin Elmer 1450 Microbeta TRILUX liquid scintillation counter. Results were expressed as % of AEA uptake versus cells treated with solvent and the EC50 and IC50 values were calculated from the sigmoidal curves, which were generated using the GraphPad Prism 5.0 (GraphPad Software, San Diego, Calif., US).

As to `Cn1c(=O)oc2ccc(NC(=O)/C=C/C=C/CCc3ccccc3)cc21` [Example 10], the EC50 stood at 112 nM.
`CCCCCCC/C=C/C=C/CNC(=O)c1ccc2oc(=O)[nH]c2c1` [Example 4]: the EC50 was 146 nM.
